In patent US6825348B2, “Antiviral compounds” (Academia Sinica, priority 2002, dated 2004):
In brackets after ≈: the same amount, converted by molar mass. Read-outs that look alike come from different tables or passages of the source.

What was measured:
[1] = system: human cytomegalovirus (AD-169); test: Inhibition of HCMV cytopathogenicity in Vero cell culture; format: cell-based; settings: read-out: IC50 HCMV (AD-169)
[2] = system: thymidine kinase-deficient (TK−) varicella-zoster virus (YS/R); test: microbe, parasite or virus in culture; format: cell-based; settings: Human alphaherpesvirus 3, Vero, read-out: IC50 TK−VZV (YS/R)
[3] = Solubility in water (phosphate buffer, UV absorbance); settings: pH 6.8, aqueous buffer, thermodynamic from solid
[4] = target: T1, calf mucosal adenosine deaminase (ADA, EC 3.5.4.4) (Bos taurus, UniProt P56658); test: Substrate activity and competitive inhibition of adenosine deaminase; format: biochemical
T1 sequence (P56658 1-363): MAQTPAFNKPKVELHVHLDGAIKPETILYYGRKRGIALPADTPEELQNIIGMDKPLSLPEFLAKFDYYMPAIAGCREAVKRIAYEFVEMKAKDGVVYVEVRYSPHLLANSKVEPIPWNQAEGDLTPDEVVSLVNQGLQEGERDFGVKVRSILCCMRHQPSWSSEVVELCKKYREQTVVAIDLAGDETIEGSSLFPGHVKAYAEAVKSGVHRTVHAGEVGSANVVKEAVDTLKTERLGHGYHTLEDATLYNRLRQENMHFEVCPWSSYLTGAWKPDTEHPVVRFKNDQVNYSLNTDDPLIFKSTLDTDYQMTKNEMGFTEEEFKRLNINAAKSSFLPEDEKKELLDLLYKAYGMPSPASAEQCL

[5] = system: HSV-1 (KOS); test: Anti-HSV-1 activity in vivo, HSV-1-induced mortality in NMRI mice; settings: 6 days; for mean day of animal death / mean day of symptom initiation: terminated day 21; for protection against HSV-induced mortality: 150 mg/kg dose level i.p.; for responders at 100 mg/kg / responders at 150 mg/kg / responders at 250 mg/kg: Human alphaherpesvirus 1, ip, 504 h
[6] = system: HIV-1 (IIIB); test: microbe, parasite or virus in culture; format: cell-based; settings: Human immunodeficiency virus 1, IIIB
[7] = system: HIV-2 (LAV-2); test: Inhibition of HIV-2 cytopathogenicity in MT4 cells; format: cell-based, human immunodeficiency virus
[8] = Lipophilicity, 1-octanol/water partition coefficient
[9] = system: herpes simplex type 1 virus (HSV-1) (KOS); test: Inhibition of HSV-1 cytopathogenicity in Vero cell culture; format: cell-based; settings: Human alphaherpesvirus 1, Vero, read-out: IC50 HSV-1 (KOS)
[10] = system: Snake venom phosphodiesterase; test: Activity of snake venom phosphodiesterase against nucleotide analogs; settings: pH 9.2, 37° C., 8 h
[11] = system: moloney murine sarcoma virus (MSV); test: Inhibition of MSV cytopathogenicity in CEM cells (cell-protection assay); format: cell-based; settings: Moloney murine sarcoma virus, CCRF-CEM, read-out: IC50 MSV
[12] = system: MT4 cells; test: Toxicity toward MT4 cells
[13] = system: Vero cells; settings: African green monkey
[14] = system: HeLa cells; settings: human
[15] = LD50 and toxicity in mice, intraperitoneal
[16] = system: CEM cells; test: Toxicity toward CEM cells
[17] = system: thymidine kinase-positive (TK+) varicella-zoster virus (YS); test: Inhibition of TK+ VZV cytopathogenicity in Vero cell culture; format: cell-based
[18] = 100 mg/kg/day i.p., read-out: percentage of HSV-1-infected mice alive at day 21 postinfection
[19] = 100 mg/kg/day i.p., read-out: percentage of HSV-1-infected mice without symptoms at day 21 postinfection
[20] = 150 mg/kg/day i.p., read-out: percentage of HSV-1-infected mice alive at day 21 postinfection
[21] = 150 mg/kg/day i.p., read-out: percentage of HSV-1-infected mice without symptoms at day 21 postinfection
[22] = 250 mg/kg/day i.p., read-out: percentage of HSV-1-infected mice alive at day 21 postinfection
[23] = 250 mg/kg/day i.p., read-out: percentage of HSV-1-infected mice without symptoms at day 21 postinfection

With `Nc1ncnc2c1ncn2[C@@H]1O[C@H](COP(=O)(O)O)[C@@H](OP(=O)(O)COCCn2cnc3ncnc(N)c32)[C@H]1O` [Compound 24, 9-[5′-O-(phosphono)-β-D-furanosyl]adenine-3′-[[1-(adenin-7-yl-ethoxy)methyl]phosphonate]] the IC50 ([1]; Human betaherpesvirus 5, AD169, Vero) was 11 µg/mL (≈ 18.3 µM), the IC50 [2] was 4.2 µg/mL (≈ 6.97 µM) and the solubility at 20 h ([3]; 0.10 m phosphate buffer) was 3080 µg/mL (≈ 5110 µM). The “Vmax less than that of ara-A 3” value ([4]; ADA substrate) was “about 95%”, the “type of ADA inhibition in words” value ([4]; ara-A used as substrate) was “competitive inhibition” and the “rel. Vmax” value ([4]; compound as ADA substrate, relative to ara A 3 = 1.0) was 9.78 × 10^−2. The Ki ([4]; inhibition of ADA with ara-A 3 as substrate) was 99.7 µM, the “mean day of animal death” value ([5]; 100 mg/kg/day i.p.) was 19.5 ± 1.2 days and the “mean day of symptom initiation” value ([5]; 100 mg/kg/day i.p.) was 16.0 ± 1.7 days. For the same compound, the “protection against HSV-induced mortality” value [5] was “full protection”, the “mean day of animal death” value ([5]; 150 mg/kg/day i.p.) was >21 days and the “mean day of symptom initiation” value ([5]; 150 mg/kg/day i.p.) was 19.3 ± 1.6 days. The “mean day of animal death” value ([5]; 250 mg/kg/day i.p.) was >21 days, the “mean day of symptom initiation” value ([5]; 250 mg/kg/day i.p.) was >21 days and the responders at 100 mg/kg [5, 18] was 90%. It also gave a responders at 100 mg/kg [5, 19] of 70%, a responders at 150 mg/kg [5, 20] of 100% and a responders at 150 mg/kg [5, 21] of 85%. For the same compound, the responders at 250 mg/kg [5, 22] was 100%, the responders at 250 mg/kg [5, 23] was 100% and the IC50 ([6]; MT4, read-out: IC50 HIV-1 (IIIB)) was 5.9 µg/mL (≈ 9.79 µM). It also gave an IC50 ([7]; Human immunodeficiency virus 2, MT4, read-out: IC50 HIV-2 (LAV-2)) of 6.4 µg/mL (≈ 10.6 µM), a logP at […] ([8]; 1-octanol/phosphate buffer) of 0.12 and an IC50 [9] of 7 µg/mL (≈ 11.6 µM). The “yield of 5′-dephosphorylated product with snake venom phosphodiesterase” value [10] was “about 80%” and the IC50 [11] was 17 µg/mL (≈ 28.2 µM).
For `COC1=C(OC)/C(=C/COP(=O)(O)OC[C@H]2O[C@@H](n3cnc4c(N)ncnc43)[C@H](O)[C@@H]2OP(=O)(O)COCCn2cnc3ncnc(N)c32)OC1=O` [Compound 25, 9-[[(Z)-4-(ethylidene)-2,3-dimethoxy-Δ^a,b-butenolide]-β-D-furanosyl]adenine-3′-[[1-(adenin-7-yl-ethoxy)methyl]phosphonate]-4,5′-phosphate], the “MT4 cell, concentration reducing the number of viable uninfected cells by 50%” value [12] was >300 µg/mL, the “Vero cell, concentration causing microscopically visible change or disruption in about 50% of the cell sheet” value [13] was 350 µg/mL and the IC50 ([1]; Human betaherpesvirus 5, AD169, Vero cell culture, 50% inhibition of cytopathogenicity, for 1:1 mixtures IC50 refers to known antiviral drugs) was 4.1 µg/mL (≈ 5.32 µM). For the same compound, the IC50 [2] was 2 µg/mL (≈ 2.6 µM), the solubility at 20 h ([3]; phosphate buffer) was 5160 µg/mL (≈ 6700 µM) and the “ADA substrate / inhibitor property in words” value [4] was “neither a good substrate nor an inhibitor”. The “HeLa cell, concentration causing microscopically visible change or disruption in about 50% of the cell sheet” value [14] was 326 µg/mL, the “mean day of animal death” value ([5]; 100 mg/kg/day i.p.) was >21 days and the “mean day of symptom initiation” value ([5]; 100 mg/kg/day i.p.) was 19.6 ± 1.5 days. For the same compound, the “protection against HSV-induced mortality” value [5] was “full protection”, the “mean day of animal death” value ([5]; 150 mg/kg/day i.p.) was >21 days and the “mean day of symptom initiation” value ([5]; 150 mg/kg/day i.p.) was >21 days. For the same compound, the “mean day of animal death” value ([5]; 250 mg/kg/day i.p.) was >21 days, the “mean day of symptom initiation” value ([5]; 250 mg/kg/day i.p.) was >21 days and the responders at 100 mg/kg [5, 18] was 100%. The responders at 100 mg/kg [5, 19] was 94%, the responders at 150 mg/kg [5, 20] was 100% and the responders at 150 mg/kg [5, 21] was 100%. The responders at 250 mg/kg [5, 22] was 100%, the responders at 250 mg/kg [5, 23] was 100% and the IC50 ([6]; MT4 cells, average of duplicates, read-out: IC50 HIV-1 (IIIB)) was 4.9 µg/mL (≈ 6.36 µM). For the same compound, the LD50 ([15]; NMRI, mouse, in vivo, ip) was 675 mg/kg, the “level up to which no toxicity was shown” value ([15]; mice, intraperitoneal) was 400 mg/kg and the IC50 ([7]; Human immunodeficiency virus 2, MT4 cells, average of duplicates, read-out: IC50 HIV-2 (LAV-2)) was 4.2 µg/mL (≈ 5.45 µM). For the same compound, the “CEM cell, concentration reducing the number of viable uninfected cells by 50%” value [16] was >300 µg/mL, the logP at […] ([8]; 1-octanol/water (0.10 M phosphate buffer)) was 1.37 and the IC50 [9] was 3 µg/mL (≈ 3.89 µM). The “stability to snake venom phosphodiesterase in words” value [10] was “completely resistant”, the “IC50 TK+VZV (YS)” value [17] was 1.7 µg/mL (≈ 2.21 µM) and the IC50 ([11]; CEM cells, average of duplicates) was 13 µg/mL (≈ 16.9 µM).
